The NIST ThermoML archive (doi:10.1016/j.fluid.2013.11.023)
Numbers after ± are expanded uncertainties.

Settings: Crystal; DTA

Brc1sc(Br)c(Br)c1Br [perbromothiophene]
Normal melting temperature: 118.60 ± 4 °C
